# Reference: patent US11578074B2, “Nitrogenous heterocyclic compound, preparation method, intermediate, composition, and application” (SHANGHAI PHARMACEUTICALS HOLDING CO., LTD., priority 2017, dated 2023)
# Legend:
# [1] = system: BT-474 (human breast cancer cell); test: In vitro proliferation inhibition assay of cell lines (CellTiter-Glo), BT-474; assay type: cell-based; conditions: BT-474 cells, 72 hours
# Summary of the method: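 Cells were exposed to nine compound concentrations in duplicate for 72 h at 37 °C and 5% CO2. Viability was read with CellTiter-Glo reagent after equilibration at room temperature.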
# [2] = system: N87 (human gastric cancer cell NCI-N87); test: In vitro proliferation inhibition assay of cell lines (CellTiter-Glo), N87; assay type: cell-based; conditions: N87 cells, 72 hours
# Summary of the method: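 Cells seeded overnight (BT-474 8.8×10^4 cells/mL, N87 6.6×10^4 cells/mL), then exposed to 9 compound concentrations in duplicate for 72 hours at 37° C, 5% CO2. Viability read by CellTiter-Glo luminescence.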
# CYP2C19 = target: T1, CYP2C19 (Homo sapiens, UniProt P33261); test: Direct inhibition (DI) of CYP2C19 in human liver microsomes; assay type: in vitro ADME; conditions: probe Mephenytoin, human liver microsomes 0.2 mg/mL, 10 μM compound, read-out: Direct inhibition (DI) 2C19 (Mephenytoin)
# T1 construct: A system of 100 μL human liver microsomes; from tissue; host or cells: human liver microsomes
# Summary of the method: (§1)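 Pooled human liver microsomes (0.2 mg/mL) with 1 mM NADPH and 10 μM test compound were incubated for 20 min with a mixed probe-substrate cocktail (midazolam 10 μM, testosterone 100 μM, dextromethorphan 10 μM, diclofenac 20 μM, phenacetin 100 μM, mephenytoin 100 μM). Relative enzyme activity came from metabolite formation versus DMSO control.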
# CYP2C9 = target: T2, CYP2C9 (Homo sapiens, UniProt P11712); test: Direct inhibition (DI) of CYP2C9 in human liver microsomes; assay type: in vitro ADME; conditions: probe Diclofenac, human liver microsomes 0.2 mg/mL, 10 μM compound, read-out: Direct inhibition (DI) 2C9 (Diclofenac)
# T2 construct: A system of 100 μL human liver microsomes; from tissue; host or cells: human liver microsomes
# Summary of the method: as §1
# ErbB2 kinase = target: T3, ErbB2 kinase (Homo sapiens, UniProt P04626); test: EGFR/ErbB2 enzymatic experiment (HTRF kinEASE-TK), ErbB2; assay type: biochemical; conditions: ErbB2 kinase 0.06 ng/μL, ATP 4 μM; read-out: Kinase IC50 (nM) in vitro ErbB2
# T3 construct: The final concentration of ErbB2 kinase was 0.06 ng/μL
# T3 sequence (P04626 23-1255): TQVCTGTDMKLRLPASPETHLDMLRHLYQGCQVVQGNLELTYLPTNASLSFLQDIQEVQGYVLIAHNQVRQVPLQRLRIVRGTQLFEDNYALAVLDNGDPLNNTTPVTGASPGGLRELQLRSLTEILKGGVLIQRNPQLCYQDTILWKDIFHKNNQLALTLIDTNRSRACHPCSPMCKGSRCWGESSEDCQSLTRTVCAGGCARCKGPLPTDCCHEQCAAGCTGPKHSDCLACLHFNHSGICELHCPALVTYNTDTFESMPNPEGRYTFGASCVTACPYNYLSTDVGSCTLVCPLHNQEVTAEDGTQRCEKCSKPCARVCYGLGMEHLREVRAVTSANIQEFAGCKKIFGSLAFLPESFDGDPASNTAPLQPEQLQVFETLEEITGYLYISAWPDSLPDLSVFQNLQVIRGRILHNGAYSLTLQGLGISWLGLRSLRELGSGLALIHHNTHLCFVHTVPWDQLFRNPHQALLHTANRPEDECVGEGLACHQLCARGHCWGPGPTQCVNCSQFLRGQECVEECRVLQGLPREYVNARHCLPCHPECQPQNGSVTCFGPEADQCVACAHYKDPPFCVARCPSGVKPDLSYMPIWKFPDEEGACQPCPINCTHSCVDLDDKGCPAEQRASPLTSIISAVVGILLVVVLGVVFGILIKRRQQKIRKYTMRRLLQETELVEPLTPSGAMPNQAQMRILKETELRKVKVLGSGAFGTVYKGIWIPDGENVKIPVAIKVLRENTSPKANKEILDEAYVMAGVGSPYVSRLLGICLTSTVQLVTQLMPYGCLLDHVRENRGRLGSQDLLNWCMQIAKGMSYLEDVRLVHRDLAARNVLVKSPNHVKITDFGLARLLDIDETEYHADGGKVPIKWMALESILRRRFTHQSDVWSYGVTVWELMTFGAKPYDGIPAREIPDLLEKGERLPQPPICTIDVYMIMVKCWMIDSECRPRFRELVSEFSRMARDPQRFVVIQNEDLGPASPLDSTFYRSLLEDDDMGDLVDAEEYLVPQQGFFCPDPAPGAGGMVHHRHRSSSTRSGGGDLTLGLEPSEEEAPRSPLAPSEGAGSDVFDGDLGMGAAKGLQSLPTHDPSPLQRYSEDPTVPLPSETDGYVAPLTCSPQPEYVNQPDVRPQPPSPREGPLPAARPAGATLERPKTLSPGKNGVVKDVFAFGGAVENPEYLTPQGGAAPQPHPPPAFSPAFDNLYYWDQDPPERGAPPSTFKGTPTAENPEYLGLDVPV
# T2 sequence (P11712 whole entry): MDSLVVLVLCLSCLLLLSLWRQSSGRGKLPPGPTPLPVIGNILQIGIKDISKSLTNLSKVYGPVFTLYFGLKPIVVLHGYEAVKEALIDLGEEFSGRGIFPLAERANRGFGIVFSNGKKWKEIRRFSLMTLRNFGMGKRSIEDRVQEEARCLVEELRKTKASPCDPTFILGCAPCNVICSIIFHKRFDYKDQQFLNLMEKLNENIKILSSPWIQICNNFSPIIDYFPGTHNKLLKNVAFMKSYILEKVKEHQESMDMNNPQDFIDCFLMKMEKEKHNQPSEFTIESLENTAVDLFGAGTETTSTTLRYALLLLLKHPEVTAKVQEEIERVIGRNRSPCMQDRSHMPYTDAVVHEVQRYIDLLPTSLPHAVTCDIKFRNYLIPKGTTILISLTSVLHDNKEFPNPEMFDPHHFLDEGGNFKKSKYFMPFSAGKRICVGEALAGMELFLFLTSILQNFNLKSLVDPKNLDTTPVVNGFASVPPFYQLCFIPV
# T1 sequence (P33261 whole entry): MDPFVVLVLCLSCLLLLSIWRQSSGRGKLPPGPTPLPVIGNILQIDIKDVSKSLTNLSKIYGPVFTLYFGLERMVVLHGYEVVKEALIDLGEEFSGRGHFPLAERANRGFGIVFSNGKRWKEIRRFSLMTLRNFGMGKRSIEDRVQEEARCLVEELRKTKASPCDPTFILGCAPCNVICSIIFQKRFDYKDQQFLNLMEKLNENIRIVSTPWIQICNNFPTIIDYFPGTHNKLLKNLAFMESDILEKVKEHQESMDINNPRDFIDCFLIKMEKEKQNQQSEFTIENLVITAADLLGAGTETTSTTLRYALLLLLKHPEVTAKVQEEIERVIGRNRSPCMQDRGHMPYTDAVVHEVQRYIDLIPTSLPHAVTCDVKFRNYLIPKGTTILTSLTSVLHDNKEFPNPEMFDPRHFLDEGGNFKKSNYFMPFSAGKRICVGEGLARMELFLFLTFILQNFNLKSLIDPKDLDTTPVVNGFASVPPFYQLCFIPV
Compound,IC50 [1],IC50 [2],"inhibition at 20 min, 10 µM (CYP2C19)","inhibition at 20 min, 10 µM (CYP2C9)",IC50 (ErbB2 kinase)
CCOc1cc2ncnc(Nc3ccc(Oc4ccn5ncnc5c4)c(C)c3)c2cc1NC(=O)/C(F)=C/[C@H]1CCCN1C [Final product of Embodiment 45],2.1 nM,1.3 nM,11%,< 0%,1.8 nM
"CCOc1cc2ncnc(Nc3ccc(Oc4ccn5ncnc5c4)c(C)c3)c2cc1NC(=O)/C=C/[C@H]1CCCN1C [Final product of Embodiment 22, (R,E)-N-(4-((4-([1,2,4]triazolo[1,5-a]pyridin-7-yloxy)-3-methylphenyl)amino)-7-ethoxyquinazolin-6-yl)-3-(1-methylpyrrolidin-2-yl)acrylamide]",1 nM,0.68 nM,37%,10%,0.37 nM
